# Measurements as given in paper PMC4493835 (Frontiers in Microbiology, 2015).
# Read-outs that look alike come from different tables or passages of the source.
# How the values were obtained:
# [1] = tested on: phospholipase D; type: cell-based, Phytophthora infestans
# [2] = tested on: Staphylococcus aureus; details: ref Reder-Christ et al., 2012; Schmidt et al., 2014; cited from earlier work
# Description: Recently, we discovered Pseudomonas sp. SH-C52, a strain representative of a larger population of Pseudomonads that contributes to the natural suppressiveness of a soil against the fungal plant pathogen Rhizoctonia solani (Mendes et al., [2011]). The gene cluster responsible for the activity of strain SH-C52 against R. solani is encoded by an NRPS, predicted to synthesize a 9-amino-acid chlorinated LP, designated thanamycin (Mendes et al., [2011]). The production and partial structure of thanamycin was resolved by live colony mass spectrometry (Watrous et al., [2012]). Next to thanamycin, stra ...
# [3] = tested on: Phytophthora capsici; type: cell-based; details: 50 μM brabantamide A
# [4] = tested on: Phytophthora infestans; type: cell-based
# [5] = tested on: phospholipase A2
# [6] = tested on: fungi; type: cell-based
# [7] = tested on: Arthrobacter crystallopoietes; details: cited from earlier work
# [8] = tested on: Pythium ultimum; type: cell-based; details: 50 μM brabantamide A
# [9] = tested on: B. megaterium; details: cited from earlier work
# [10] = tested on: Rhodotorula pilimanae; details: cited from earlier work
# [11] = tested on: B. megaterium; details: cited from earlier work; remark: listed apart in the source
# [12] = tested on: Rhizoctonia solani; details: cited from earlier work
# [13] = tested on: Pectobacterium atrosepticum; type: cell-based; details: inferred from wild type vs thanamycin mutants; data not shown
# Protocol: (§1) For in vitro growth inhibition of fungi and oomycetes, SH-C52 and its derivative strains were, using an overnight culture in KB, spot-inoculated (3 μl) at the periphery of 1/5th strength PDA (pH 7.0) plates. After incubation for 2 days at 25°C, an agar plug (4-mm-diameter) from a freshly grown plate with the target organism was transferred to the center of the 1/5th PDA plate. Inhibition of radial growth of the fungus or the oomycete was monitored from 2 days after incubation up to 2 weeks after incubation, depending on the growth speed of the target organism. For in vitro bacteria and yeast inhibition assays, bacteria and yeast cells were included, after autoclaving and cooling to 45°C, into the 1/5th PDA medium at a concentration of ~10^5 cfu/ml. After solidifying and sufficient drying of the plates, SH-C52 and its derivative strains were, using an overnight culture in KB, spot-inoculated (3 μl) at the periphery of the bacteria or yeast containing plates.
# [14] = tested on: Pseudomonas syringae; type: cell-based; details: inferred from wild type vs thanamycin mutants; data not shown
# Protocol: as §1
substance,measurement,setting,value
brabantamide,variation in the phospholipid levels,[1],no significant variation
brabantamide A,activity against Staphylococcus aureus,[2],displays activity
same,activity against Phytophthora capsici,[3],has activity
same,concentration at which the increase in PtdBut levels already occurred,[1],≤ 1 µM
same,other phospholipid levels,[1],not affected
same,phosphatidylbutanol (PtdBut) levels (indicates stimulation of phospholipase D),[1]; n = 2,increase
same,concentration above which mycelial growth is inhibited (less dense mycelial mat),[4],above 5 μM
same,activity against P. infestans,"[4]; 1% DMSO, 18°C",has activity
same,inhibition of phospholipase A2,[5],no indication was found
same,antifungal activity,[6],No antifungal activity
same,activity against Arthrobacter crystallopoietes,[7],displays activity
same,activity against Pythium ultimum,[8],has activity
cormycin,activity against B. megaterium,[9],active
same,activity against the yeast Rhodotorula pilimanae,[10],active
corpeptin,activity against B. megaterium,[11],activity was observed
syringopeptin,activity against B. megaterium,[11],activity was observed
thanamycin,antifungal activity against Rhizoctonia solani,[12],antifungal activity
same,activity against Pectobacterium atrosepticum,[13],little activity
same,activity against Pseudomonas syringae,[14],little activity
